The numbers were not newly measured in patent US11857553B2, “Chromium containing compositions for improving health and fitness” (NUTRITION 21, LLC, priority 2016, dated 2024), which cites them from elsewhere.

Series [1] relates to chromium absorption. The following applies: orally administered CrCl3.
The conditions of series [2]: rats, several thousand times the upper limit of the ESADDI for chromium for humans.

Consider `CC(=O)Oc1ccccc1C(=O)O` [aspirin], for which, in series [1], the “effect on chromium absorption” value is “facilitate chromium absorption”.

As to `[Cl][Cr]([Cl])[Cl]` [chromium chloride], the toxicity result in series [2] is listed as “without toxic effects”.

In the case of `COc1ccc2c(c1)c(CC(=O)O)c(C)n2C(=O)c1ccc(Cl)cc1` [indomethacin], in series [1], the “effect on chromium absorption” value is listed as “facilitate chromium absorption”.

With chromium picolinate, the toxicity result in series [2] is given as “without toxic effects”.
